*1 amine or outer side, *2 acyl side, *3 side chain or, on linkers, in order; H or OH if unused. Where a SMILES comes first, the peptide text is derived from it. [ ]: non-standard residue; d: D form. LeuΨ(S-CHOHCH2)Ala = CC(C)C[C@H](N[*:1])[C@@H](O)C[C@@H](C)C(=O)[*:2]
Assays:
Beta-secretase 1 [1] = target: T1, Beta-secretase 1 (Homo sapiens, UniProt P56817); assay: Inhibition of BACE1 (unknown origin)
Beta-secretase 1 [2] = target: T1, Beta-secretase 1; assay: Inhibition of Homo sapiens (human) Beta-secretase 1
Beta-secretase 1 [3] = target: T1, Beta-secretase 1; assay: Inhibition of BACE1 (unknown origin) at 10 ug/ml after 1 hr by FRET assay
[4] = Neuroprotective activity in Homo sapiens (human) SH-SY5Y cells assessed as reduction of amyloid beta-induced cell death at 10 ug/ml inubated for 1 hr prior to amyloid beta induction measured after 48 hr by MTT assay; type: functional; parameters: scale not given: the % may be the effect or the level left

T1 sequence (P56817 whole entry): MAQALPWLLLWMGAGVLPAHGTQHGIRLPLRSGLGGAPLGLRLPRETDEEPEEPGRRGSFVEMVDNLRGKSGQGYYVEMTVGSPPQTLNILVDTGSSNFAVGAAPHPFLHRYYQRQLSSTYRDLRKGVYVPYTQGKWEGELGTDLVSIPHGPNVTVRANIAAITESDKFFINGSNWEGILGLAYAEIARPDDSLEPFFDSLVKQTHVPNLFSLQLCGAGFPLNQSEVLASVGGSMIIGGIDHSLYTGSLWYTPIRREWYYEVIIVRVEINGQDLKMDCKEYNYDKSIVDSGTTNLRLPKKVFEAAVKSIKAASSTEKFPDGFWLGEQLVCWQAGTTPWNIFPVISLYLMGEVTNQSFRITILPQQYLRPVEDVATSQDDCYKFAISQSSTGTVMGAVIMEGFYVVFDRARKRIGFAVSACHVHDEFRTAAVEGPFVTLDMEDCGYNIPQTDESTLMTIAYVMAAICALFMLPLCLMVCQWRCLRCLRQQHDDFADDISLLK

| Structure (SMILES) | Ki (Beta-secretase 1 [1]) [nM] | IC50 (Beta-secretase 1 [2]) [nM] | inhibition (Beta-secretase 1 [3]) [%] | Activity [4] [%] |
| --- | --- | --- | --- | --- |
| CC(C)C[C@H](NC(=O)[C@H](CC(N)=O)NC(=O)[C@@H](NC(=O)[C@@H](N)CC(=O)O)C(C)C)[C@@H](O)C[C@@H](C)C(=O)N[C@@H](C)C(=O)N[C@@H](CC(=O)O)C(=O)N[C@@H](Cc1ccccc1)C(=O)O (H-DVN[LeuΨ(S-CHOHCH2)Ala]ADF-OH) | 1.6 | 2 | – | – |
| O=C(/C=C/c1ccccc1)Nc1nc(-c2ccccc2)cs1 | – | – | 23.6 | – |
| CCOC(=O)CCC(=O)Nc1nc(-c2ccccc2)cs1 | – | – | 31.8 | 45.5 |
| O=C(Nc1nc(-c2ccccc2)cs1)c1ccncc1 | – | – | 29.1 | 8.2 |
| COc1cc(/C=C/C(=O)Nc2nc(-c3ccccc3)cs2)cc(OC)c1 | – | – | 24.5 | – |
| CCOC(=O)CCC(=O)NC1=NC2CCCCC2S1 (stereo not given) | – | – | 26.7 | 26.1 |
